Earlier results as cited in US20150080385A1, “OPHTHALMIC PHARMACEUTICAL COMPOSITION CONTAINING A CARBONIC ANHYDRASE INHIBITOR AND METHOD FOR THE PREPARATION THEREOF” (PHARMATHEN S.A., priority 2012, published 2015).

Solubility in alcohol and methanol (alcohol and methanol): slightly soluble
Solubility in water (water): insoluble
Structure (SMILES): CCN[C@H]1CN(CCCOC)S(=O)(=O)c2sc(S(N)(=O)=O)cc21 [Brinzolamide, (R)-4-ethylamino-3,4-dihydro-2-(3-methoxy) propyl-2H-thieno[3,2-e]-1,2-thiazine-6-sulfonamide 1, 1 dioxide]
